In brackets after ≈: the same amount, converted by molar mass. Activity calls are given as the source filed them. The rule behind the calls is not given here.
Tests used:
Staphylococcus aureus [1] = test: Bactericidal activity against vancomycin-intermediate Staphylococcus aureus in rabbit endocarditis model assessed as growth inhibition at 58 mg/kg infused every 12 hrs for 4 days measured after 48 hrs; format: functional; conditions: read-out: GI
Staphylococcus aureus [2] = test: Bactericidal activity against methicillin-resistant Staphylococcus aureus SA2 by microdilution technique; format: functional
Staphylococcus aureus [3] = test: Bactericidal activity against methicillin-resistant Staphylococcus aureus SA2 in rabbit endocarditis model assessed per gram of aortic vegetation at 58 mg/kg infused every 12 hrs for 4 days measured after 48 hrs; format: functional, Aorta
Staphylococcus aureus [4] = test: Bactericidal activity against vancomycin-intermediate Staphylococcus aureus by microdilution technique; format: functional
Oryctolagus cuniculus = test: Plasma concentration in rabbit at 58 mg/kg infused every 12 hrs for 4 days; format: ADME, organism-based; set-up: dose 58 mg/kg; conditions: in vivo, iv
Staphylococcus aureus [5] = test: Bactericidal activity against methicillin-resistant Staphylococcus aureus SA2 in rabbit endocarditis model assessed as growth inhibition at 58 mg/kg infused every 12 hrs for 4 days measured after 48 hrs; format: functional; conditions: read-out: GI
Staphylococcus aureus [6] = test: Bactericidal activity against vancomycin-intermediate Staphylococcus aureus in rabbit endocarditis model assessed per gram of aortic vegetation at 58 mg/kg infused every 12 hrs for 4 days measured after 48 hrs; format: functional, Aorta
Moraxella catarrhalis = test: Antibacterial activity against Moraxella catarrhalis; format: functional, organism-based
Staphylococcus aureus [7] = test: %T>MIC in methicillin-resistant Staphylococcus aureus SA2 in rabbit endocarditis model; conditions: in vivo
Staphylococcus aureus [8] = test: Bactericidal activity against methicillin-resistant Staphylococcus aureus SA2 in rabbit endocarditis model at 4 times MIC after 48 hrs; format: functional, organism-based
Citrobacter freundii = test: Antibacterial activity against Citrobacter freundii; format: functional, organism-based
Staphylococcus aureus [9] = test: Bactericidal activity against vancomycin-intermediate Staphylococcus aureus in rabbit endocarditis model at 4 times MIC after 48 hrs; format: functional, organism-based
Pseudomonas aeruginosa = test: Antibacterial activity against Pseudomonas aeruginosa; format: functional
Escherichia coli = test: Antibacterial activity against Escherichia coli; format: functional, organism-based
Klebsiella pneumoniae = test: Antibacterial activity against Klebsiella pneumoniae; format: functional, organism-based
Morganella morganii = test: Antibacterial activity against Morganella morganii; format: functional, organism-based
[10] = Protein binding in rabbit plasma; format: ADME, cell-free, Oryctolagus cuniculus; conditions: read-out: PPB
Staphylococcus aureus [11] = test: %T>MIC in vancomycin-intermediate Staphylococcus aureus in rabbit endocarditis model; conditions: in vivo
Haemophilus influenzae = test: Antibacterial activity against Haemophilus influenzae; format: functional, organism-based
Staphylococcus aureus [12] = test: %T>MIC in methicillin-resistant Staphylococcus aureus in mouse thigh/lung infection model; format: ADME, organism-based; conditions: in vivo
[13] = Protein binding in human plasma; format: ADME, cell-free; conditions: read-out: PPB
Neisseria meningitidis = test: Antibacterial activity against Neisseria meningitidis; format: functional, organism-based
[14] = Half life in rabbit plasma at 58 mg/kg infused every 12 hrs for 4 days; format: ADME, organism-based, Oryctolagus cuniculus; set-up: dose 58 mg/kg; conditions: iv
[15] = Cmax in rabbit plasma at 58 mg/kg infused every 12 hrs for 4 days; format: ADME, organism-based, Oryctolagus cuniculus; set-up: dose 58 mg/kg; conditions: iv
[16] = AUC in rabbit plasma at 58 mg/kg infused every 12 hrs for 4 days; format: ADME, organism-based, Oryctolagus cuniculus; set-up: dose 58 mg/kg; conditions: iv

SMILES | inhibition in vivo at 58 mg/kg (Staphylococcus aureus [1]) [%] | MBC (Staphylococcus aureus [2]) [µg/mL] | log10cfu (Staphylococcus aureus [3]) | MBC (Staphylococcus aureus [4]) [µg/mL] | inhibition in vivo at 58 mg/kg (Staphylococcus aureus [5]) [%] | log10cfu (Staphylococcus aureus [6]) | MIC (Staphylococcus aureus [2]) [µg/mL] | MIC (Staphylococcus aureus [4]) [µg/mL] | other results
CN[C@H](CC(C)C)C(=O)N[C@H]1C(=O)N[C@@H](CC(N)=O)C(=O)N[C@H]2C(=O)N[C@H]3C(=O)N[C@H](C(=O)N[C@H](C(=O)O)c4cc(O)cc(O)c4-c4cc3ccc4O)[C@H](O)c3ccc(c(Cl)c3)Oc3cc2cc(c3O[C@@H]2O[C@H](CO)[C@@H](O)[C@H](O)[C@H]2O[C@H]2C[C@](C)(N)[C@H](O)[C@H](C)O2)Oc2ccc(cc2Cl)[C@H]1O [VANCOMYCIN] | 0 | 2 (≈ 1.38 µM) | 2.7 | 8 (≈ 5.52 µM) | 67 | 6.7 | – | – | Cp (Oryctolagus cuniculus): 23100 ng/mL
CCO/N=C(\C(=O)N[C@@H]1C(=O)N2C(C(=O)[O-])=C(Sc3nc(-c4cc[n+](C)cc4)cs3)CS[C@H]12)c1nsc(NP(=O)(O)O)n1 [CEFTAROLINE FOSAMIL] | 60 | 1 (≈ 1.46 µM) | 2.5 | 2 (≈ 2.92 µM) | 90 | 3 | 1 (≈ 1.46 µM) | 2 (≈ 2.92 µM) | Activity (Moraxella catarrhalis): Active; T>MIC (Staphylococcus aureus [7]): 75%; Activity (Staphylococcus aureus [8]): Active; Activity (Citrobacter freundii): Active; Activity (Staphylococcus aureus [9]): Active; MIC90 (Pseudomonas aeruginosa): > 32 µg/mL; Activity (Escherichia coli): Active; Activity (Klebsiella pneumoniae): Active; Activity (Morganella morganii): Active; fraction unbound [10]: > 0.8; T>MIC (Staphylococcus aureus [11]): 62%; Activity (Haemophilus influenzae): Active; T>MIC (Staphylococcus aureus [12]): 33%; fraction unbound [13]: > 0.8; Activity (Neisseria meningitidis): Active
COc1cccc(OC)c1C(=O)N[C@@H]1C(=O)N2[C@@H]1SC(C)(C)[C@@H]2C(=O)O [METHICILLIN] | – | – | – | – | – | – | 128 (≈ 336 µM) | > 1020 | –
CC(=O)NC[C@H]1CN(c2ccc(N3CCOCC3)c(F)c2)C(=O)O1 [LINEZOLID] | 0 | > 64 | 7.1 | 16 (≈ 47.4 µM) | 0 | 6.9 | – | 1 (≈ 2.96 µM) | half-life [14]: 3.3 h; Cmax [15]: 19600 ng/mL; AUC [16]: 137 µg·h/mL
